In US6528528B2 (Warner-Lambert Company, priority 1997, dated 2003):
pEC50: −log10 of the molar value.

Key:
[1] = molecular target: T1, rabbit reticulocyte 15-LO (Oryctolagus cuniculus, UniProt P12530); test: Rabbit Reticulocyte 15-LO Assay (h15LO); format: biochemical; conditions: Table 2; 2U rabbit reticulocyte 15-LO, 174 μM linoleic acid, 15 minutes at 4° C.
T1 construct: Fifteen-lipoxygenase was obtained from phenylhydrazine-treated rabbits and purified per the method of Rapoport; from tissue; host or cells: reticulocytes of phenylhydrazine-treated rabbits
T1 sequence (P12530 1-663): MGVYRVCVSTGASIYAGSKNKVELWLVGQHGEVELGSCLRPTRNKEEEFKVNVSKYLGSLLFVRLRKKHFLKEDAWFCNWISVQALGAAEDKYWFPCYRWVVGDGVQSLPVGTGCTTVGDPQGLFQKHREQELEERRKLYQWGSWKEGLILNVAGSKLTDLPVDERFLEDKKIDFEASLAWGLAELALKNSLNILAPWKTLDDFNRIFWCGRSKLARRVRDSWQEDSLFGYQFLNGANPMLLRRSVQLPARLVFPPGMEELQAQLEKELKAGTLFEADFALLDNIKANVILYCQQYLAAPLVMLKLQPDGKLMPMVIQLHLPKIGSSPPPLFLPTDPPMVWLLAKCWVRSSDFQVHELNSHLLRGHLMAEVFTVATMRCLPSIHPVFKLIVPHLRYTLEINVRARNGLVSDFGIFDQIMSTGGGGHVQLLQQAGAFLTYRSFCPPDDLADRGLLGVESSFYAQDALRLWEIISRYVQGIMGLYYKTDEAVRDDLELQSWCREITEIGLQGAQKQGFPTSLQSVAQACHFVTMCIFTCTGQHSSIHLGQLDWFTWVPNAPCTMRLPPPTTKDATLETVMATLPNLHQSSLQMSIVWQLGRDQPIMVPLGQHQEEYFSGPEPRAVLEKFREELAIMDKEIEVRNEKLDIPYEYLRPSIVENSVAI
Procedure, shortened: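 Linoleic acid oxidation to 13-HPODE measured at 4° C. over 15 minutes, using 174 μM substrate and 2U enzyme purified from phenylhydrazine-treated rabbits in PBS/0.2% Na cholate. Product peak areas calibrated with authentic 13-HODE; inhibition expressed versus maximal reaction.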

[2] = tested on: monocytes; test: Monocyte Recruitment Assay (chemotaxis of monocytes); format: cell-based; conditions: Table 3; for pEC50: Monocyte, read-out: Monocyte Recruitment Assay ED50
Method: Monocyte Recruitment Assay
The recruitment or chemotaxis of monocytes was assayed by methods well known to those skilled in the art. In particular, the method set forth in J. Clin. Invest., 1988;82:1853-1863, which is hereby incorporated by reference, was used.

[3] = tested on: Rabbits fed a 0.25% cholesterol, 3% peanut oil, 3% coconut oil diet; test: In vivo tests: aortic atherosclerotic lesions in rabbits fed a cholesterol diet; conditions: 10 mg/kg as diet admix, 12 weeks
Method: The entire descending thoracic aorta was assayed for its cholesteryl ester (CE), free cholesterol phospholipid content. The lipids were extracted in chloroform:methanol (2:1) by the procedure of Folch, et al. (Folch J., Lees M., Sloane-Stanley G. H. A simple method for the isolation and purification of total lipids from animal tissue, J. Biol. Chem., 1957;226:497-509) and 300-500 μL of an internal standard, i.e., 200 mg/ml solution of 4-hydroxy-cholesterol in ethyl acetate:acetone (2:1), was added to the extracts of the thoracic aortic samples. After extraction, the organic phase was dried under nitrogen and redissolved in isooctane/tetrahydro-furan (97:3). The lipid content and composition of the thoracic aorta were measured using an HPLC method.
For histologic evaluation of the aortic arch lesions and for quantification of aortic arch cross-sectional lesion area, a 1 cm segment of the ascending aorta distal to the aortic valves was fixed in 10% neutral buffered formalin for 24 hours. The vessels were dehydrated, cleared in xylene, and infiltrated with molten paraffin (<60° C.) using a Tissue Tek VIP autoprocessor (Miles Scientific, Elkhart, Ind.). The tissue segments were embedded in paraffin and sectioned at 5 μm with a Reichert-Jung microtome (Baxter, McGraw Park, Ill.). In order to obtain a thorough representation of the histologic appearance of the aortic arch lesions, 3 ribbons of 20 sections each were cut. Each ribbon of sections was spaced approximately 100 μm apart. Three pairs of sections, i.e., 1 pair from each ribbon, were affixed to cleaned 3-aminopropyltriethoxy-silane coated glass slides and stored until stained. The general histologic character was evaluated in Verhoeff's elastica stained sections.
The gross extent of atherosclerosis within the aortic arch was measured. In addition, sections of the aortic arch, a site of hypercholesterolemia-induced lesions, stained using the Verhoeff's elastica procedure were used for quantification of lesion cross-sectional. The internal elastic lamina (IEL) was identified as a blue-black ring and images of that region were collected using a digital camera. The area within the IEL was quantified using the Image Pro Plus image analysis software. The area of the lumen of the aortic arch was also quantified in a similar fashion. Lesion area was defined as the difference between the area circumscribed by the internal elastic lamina and the lumen area.
Aortic arch lesion extent was also measured. The area distal to the 1 cm segment taken for histologic evaluation to the first intercostal ostia was removed from the animal, opened longitudinally and images of the surface of the vessel was collected using a digital camera. The lesions were identified as raised, opaque areas and their area was determined using the Image Pro Plus image analysis software. The area of the entire aortic arch was also determined. The percentage of aortic arch covered by atherosclerotic lesions was calculated.

SMILES | IC50 [1] | melting point | pEC50 [2] | Monocyte Recruitment Assay % @ 30 μM [2] | Aortic Arch Cross-Sectional Lesion Area (% Δ from Control) [3] | Aortic Arch Lesion Extent (% Δ from Control) [3] | Aortic Cholesteryl Ester Content (% Δ from Control) [3]
COc1ccc(C(=O)Nc2ccccc2)cc1NC(=S)Nc1c(F)c(F)cc(F)c1F [Example 68, 4-Methoxy-N-phenyl-3-[3-(2,3,5,6-tetrafluoro-phenyl)-thioureido]-benzamide] | 42 nM | 170 to 174 °C | 5.64 | – | – | – | –
COc1ccc(C(=O)Nc2ccccc2)cc1NC(=S)Nc1ccc(Cl)cc1 [Example 65, 3-[3-(4-Chlorophenyl)-thioureido]-4-methoxy-N-phenyl-benzamide] | 42 nM | 179 to 180 °C | 4.64 | – | – | – | –

The next compounds have a lower IC50 [1] than those just listed; values first:

IC50 [1] | melting point | pEC50 [2] | SMILES | Monocyte Recruitment Assay % @ 30 μM [2] | Aortic Arch Cross-Sectional Lesion Area (% Δ from Control) [3] | Aortic Arch Lesion Extent (% Δ from Control) [3] | Aortic Cholesteryl Ester Content (% Δ from Control) [3]
39 nM | 194 to 195 °C | – | COc1ccc(C(=O)Nc2ccccc2)cc1Nc1ccccc1 [Example 28, 4-Methoxy-3-phenylainino-N-phenyl-benzamide] | 25% @ 30 μM | – | – | –
8.6 nM | 195 to 197 °C | 4.75 | COc1ccc(C(=O)Nc2ccccc2)cc1NC(=S)Nc1cc(Cl)cc(Cl)c1 [Example 60, 3-[3-(3,5-Dichlorophenyl)-thioureido]-4-methoxy-N-phenyl-benzamide] | – | +84 % Δ from Control | +40 % Δ from Control | +59 % Δ from Control
7 nM | 188 to 189 °C | – | COc1ccc(C(=O)Nc2ccccc2)cc1NC(=S)Nc1cccc([N+](=O)[O-])c1 [Example 66, 3-[3-(3-Nitrophenyl)-thioureido]-4-methoxy-N-phenyl-benzamide] | 38% @ 30 μM | – | – | –
